Laboratory results reported in patent US11026989B2, “Composition for treating erectile dysfunction by Orchis anatolica extract” (Jordan University of Science and Technology, priority 2016, dated 2021).

Tested on: penile tissue (corpus cavernosum strips)
Experiment: In vitro relaxation of penile tissue strips in physiological organ bath after induced contraction
Parameters: species or system New Zealand rabbit and albino rats
Text: A water-jacketed physiological organ bath provides a stable and adjustable way of organ stability and temperature control. Substrates and other nutrients that are required to sustain tissue function were provided via a physiological solution (e.g., Krebs solution). This will allowed the study of evoked tissue responses to pharmacological agents and/or electrical stimulation.
Penile tissues from a mature New Zealand rabbit (e.g., 3-3.5 kg) and albino rats (e.g., 300-350 g) were dissected out and cleaned of the outer adherent connective tissue, and the two corpora cavernosa integral tissues were obtained. Each corpus cavernosum was cut lengthwise into 4 pieces measuring about 2 mm thick and 10-12 mm long out of which a 7-8 mm long piece was taken from the middle part of each strip by removing the two unwanted edges of these strips. The strips were kept in a well oxygenated Krebs solution, pre-cooled to 4° C., and placed in a refrigerator until the initiation of the experiment.
Each erectile tissue (“ET”) was mounted by clipping both of its ends within the bath. An ET strip was hooked to one clip end, which was tied to a metal wire (e.g., mounting hook), which was fixed to a bottom of a water-jacketed chamber. The top end of the strip was clipped to a cotton thread and connected to a lever (e.g., arm), which was connected to a Harvard isotonic transducer. The former was connected to a Harvard Universal Oscillograph for recording the force of contraction to an isotonic transducer. The tissue strip was stretched against a fixed caliber weight of 2 gm attached to the lever of the isotonic transducer. The free movable lever end was horizontally adjusted receptive to any movement according to the contraction and relaxation of the ET within the path when stimulated. Before each experiment, the transducer was calibrated two times against this caliber weight. The bath into which the tissue was mounted contained 25 ml of oxygenated Krebs solution with continuous oxygenation (gas mixture of 95% O2 and 5% CO2 and at 37° C.) and left for 60 minutes before starting the experiment.
Certain specifications for collection of Orchis anatolica plants were adopted so that the intact roots together with the potato-shaped bulb parts were collected and preserved intact. Bulbs were detached from roots and left to dry at air temperature, and then separated into two categories: a large rounded sized bulb resembling the small sized potato (male bulb) and an elongated small sized bulb (female or feeding bulb). The round potato shaped bulb was chopped and grinded using an electrical grinder until a powder was obtained. Each 500 g of dried and grinded orchis roots was then refluxed in (2 L) 70% ethanol at 50° C. for 36 hours in a continuous extraction (soxhlet) apparatus. Ethanol extract was filtered and concentrated under reduced pressure at 50° C. using a rotary evaporator. Red Korean Panax Ginseng was obtained from a South Korea market as a concentrated powder vacuumed and sealed in metal container packages of 50 g (commercially obtained from KOREAEXPORT CO LTD). Powder was dissolved well in distilled water from which different concentrations were used. Different doses of both Orchis anatolica extract and Red Korean Panax Ginseng were used to obtain and determine the maximum effect of ET response.
A 1 liter Krebs stock solution was prepared the day before the experiment containing the following chemicals: NaCl (125 mM), NaHCO3 (20 mM), KCl (4 mM), NaH2PO4 (1.8 mM), MgSO4 (1.8 mM), CaCl2 (1.8 mM), glucose (10 mM), and HEPES buffer (10 mM) (see Table 1). For a final 1 liter Krebs solution, 725 ml ringer and […] Deionized water were added. The solution pH was set to 7.4 after gassing with 95% O2/5% CO2 for 30 minutes before it was used. Krebs solutions were freshly prepared on each experimental day from the stock solutions stored in the refrigerator. […]

Row | SMILES | Time dependent penile tissue contraction (−) and relaxation (+) response to treatment (5 minutes, 0.0509 gm stock solution) | Time dependent penile tissue contraction (−) and relaxation (+) response to treatment (10 minutes, 0.0509 gm stock solution) | Time dependent penile tissue contraction (−) and relaxation (+) response to treatment (15 minutes, 0.0509 gm stock solution) | Time dependent penile tissue contraction (−) and relaxation (+) response to treatment (20 minutes, 0.0509 gm stock solution) | Time dependent penile tissue contraction (−) and relaxation (+) response to treatment (25 minutes, 0.0509 gm stock solution) | Time dependent penile tissue contraction (−) and relaxation (+) response to treatment (5 minutes, 0.002 g/50 ml Krebs, after phenylephrine contraction) | Time dependent penile tissue contraction (−) and relaxation (+) response to treatment (15 minutes, 0.002 g/50 ml Krebs, after phenylephrine contraction) | Time dependent penile tissue contraction (−) and relaxation (+) response to treatment (25 minutes, 0.002 g/50 ml Krebs, after phenylephrine contraction)
1 | CNC[C@H](O)c1cccc(O)c1 [L-Phenylephrine] | −6.8%^ | −8.2%^ | −9.5%^ | −10% | −10% | – | – | –
2 | CCCc1nn(C)c2c(=O)[nH]c(-c3cc(S(=O)(=O)N4CCN(C)CC4)ccc3OCC)nc12 [Sildenafil] | – | – | – | – | – | 11% | 12% | 24%
